Laboratory results from US20130217646A1, “COMBINATION OF ALOVUDINE AND ZIDOVUDINE IN A MOLAR RATIO OF 1:100 TO 1:350” (MEDIVIR AB, priority 2006, published 2013).
Where two headings read alike, the source gives them in different places. Blank lines part the entries; values can stand above or below the molecule they belong to.

System: MT4 cell line
Settings: human, 14 days
Protocol: Several suitable cell lines supporting HIV growth are readily available including lines include those supporting HIV growth including the CEM×174 cell line derived from Swedish Institute for Infectious Disease Control (SMI) Sweden, MT-4 (commercially available) and Hep G2 (commercially available).
In short, 100 ul cells are seeded in a 96-well plate at a concentration of 1×10^4 cells/ml, at exponential growth were cultured in RPMI 1640 medium (from Gibco) supplemented with 10% heat-inactivated fetal bovine serum (from Gibco) and Penicillin-Streptomycin (from Gibco). The medium is changed every 3 or 4 days, and cells are subcultured once a week at a dilution of 1:10. All cultures are routinely checked for Mycoplasma infection and grown at 37° C. in a humidified 5% CO2 atmosphere.
All drugs tested were first dissolved at 10 mM in dimethyl sulfoxide (DMSO) before further dilution to the appropriate concentration in the culture medium. The analysis of mitochondrial DNA was performed by using Taqman technology as previously reported (Zhang, H et al. Mol. Pharmacol 1994 46:1063-1069), with modifications, and is briefly described below.
The cells are treated for a series of durations with the test drugs, such as alovudine, fosalvudine, zidovudine, abacavir etc or various combinations of alovudine/fosalvudine and zidovudine/abacavir. The various ratios indicated in the respective Tables. After 14 days of drug exposure, cells are collected. Total cellular DNA was prepared using the QiAamp DNA blood Mini kit (QIAGEN, Chatsworth, Calif.), following the supplier's instructions for the Qiagene Blood&Body Fluid Spin Protocol, and subject to DNA amplification.
The probes of mitochondrial DNA Taqman and human nuclear DNA were prepared from Applied Biosystems, which employs an internal quenched DNA probe utilizing fluorescence resonance energy transfer (FRET) to generate a spectroscopic response due to 5′->3′ exonuclease activity of Taq DNA polymerase during DNA amplification. […] It is a fully integrated system for real-time detection of PCR using ABI PRISM 7700 and TaqMan reagents for the fluorogenic 5′ nuclease assay.
The cell growth was controlled by cellular nuclear DNA ([…] ribosomal DNA).
The above described assay was performed in the MT4 cell line derived from a T lymphocyte.

Inhibition of mitochondrial DNA, % (1 uM): 18%
Inhibition of mitochondrial DNA, % (20 uM): 51%
Compound: Nc1nc(NC2CC2)c2ncn([C@H]3C=C[C@@H](CO)C3)c2n1 [abacavir]
Mean qty mt DNA (1 uM): 756544
Mean qty mt DNA (20 uM): 506181

% Reduction mt/n DNA (0.1 uM): 13%
% reduction mt DNA (0.1 uM): 44%
% reduction n DNA (0.1 uM): 35%
Inhibition of mitochondrial DNA % (0.1 uM): 70%
Inhibition of mitochondrial DNA, % (0.1 uM): 40%
Ratio Mitochondrial: Nuclear DNA (0.1 uM): 0.45
Relative no. copies mt DNA (0.1 uM): 434709
Relative no. copies n DNA (0.1 uM): 956331
Inhibition of mitochondrial DNA, % (0.2 uM): 82%
% Reduction mt/n DNA (0.3 uM): 59%
% reduction mt DNA (0.3 uM): 68%
% reduction n DNA (0.3 uM): 22%
Inhibition of mitochondrial DNA % (0.3 uM): 95%
Ratio Mitochondrial: Nuclear DNA (0.3 uM): 0.21
Relative no. copies mt DNA (0.3 uM): 247481
Relative no. copies n DNA (0.3 uM): 1160000
% Reduction mt/n DNA (0.6 uM): 89%
% reduction mt DNA (0.6 uM): 88%
% reduction n DNA (0.6 uM): 0%
Ratio Mitochondrial: Nuclear DNA (0.6 uM): 0.06
Relative no. copies mt DNA (0.6 uM): 96998
Relative no. copies n DNA (0.6 uM): 1740000
Inhibition of mitochondrial DNA % (1 uM): 100%
Compound: Cc1cn([C@H]2C[C@H](F)[C@@H](CO)O2)c(=O)[nH]c1=O [alovudine, 2′,3′-dideoxy-3′-fluorothymidine]
Mean qty mt DNA (0.1 uM): 549900
Mean qty mt DNA (0.2 uM): 187574

Inhibition of mitochondrial DNA % (1 uM): 0%
Inhibition of mitochondrial DNA % (3 uM): 0%
% Reduction mt/n DNA (10 uM): 0%
% reduction mt DNA (10 uM): 0%
% reduction n DNA (10 uM): 40%
Inhibition of mitochondrial DNA % (10 uM): 0%
Ratio Mitochondrial: Nuclear DNA (10 uM): 0.96
Relative no. copies mt DNA (10 uM): 856782
Relative no. copies n DNA (10 uM): 891446
% Reduction mt/n DNA (30 uM): 0%
% reduction mt DNA (30 uM): 0%
% reduction n DNA (30 uM): 43%
Inhibition of mitochondrial DNA, % (30 uM): 0%
Ratio Mitochondrial: Nuclear DNA (30 uM): 1.19
Relative no. copies mt DNA (30 uM): 993321
Relative no. copies n DNA (30 uM): 836935
% Reduction mt/n DNA (60 uM): 0%
% reduction mt DNA (60 uM): 4%
% reduction n DNA (60 uM): 40%
Ratio Mitochondrial: Nuclear DNA (60 uM): 0.84
Relative no. copies mt DNA (60 uM): 748730
Relative no. copies n DNA (60 uM): 890663
Compound: Cc1cn([C@H]2C[C@H](N=[N+]=[N-])[C@@H](CO)O2)c(=O)[nH]c1=O [zidovudine, 2′3′-dideoxy-3′-azido-thymidine]
Mean qty (mitochondrial DNA) (30 uM): 1410000
